This is an account of results in article PMC8667904, “Searching for drug leads targeted to the hydrophobic cleft of dengue virus capsid protein” (Journal of Enzyme Inhibition and Medicinal Chemistry, 2021).

The target of the test is T1, DENVC (dengue virus capsid protein) (Dengue virus 2 Thailand/NGS-C/1944, UniProt P14340).
T1 construct: mature capsid protein C from the N-terminus of the dengue virus genome polyprotein; pET3a, E. coli BL21(DE3)pLysS, heparin column; symmetric homodimer; printed residues reach R100
T1 sequence (P14340 1-100): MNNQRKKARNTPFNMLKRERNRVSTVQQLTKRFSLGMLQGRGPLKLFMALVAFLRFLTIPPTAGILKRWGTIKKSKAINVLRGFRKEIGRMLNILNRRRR
In words: intrinsic tryptophan fluorescence titration, shift of emission maximum. The class given is binding.

For `N=C(N)N/N=C/c1ccc(Br)s1` [compound 4, 5-bromo-thiophene-2-guanylhydrazone], the equilibrium dissociation constant (Kd) amounted to 20 ± 7 µM.

As for `O/N=C/c1cc(Cl)ccc1O` [compound 12, 2-hydroxy-5-chloro-benzyloxime], the dissociation constant Kd came out at 23 ± 8 µM.

On to `N=C(N)NN=Cc1cc(Cl)ccc1O` [compound 1, 5-chloro-salicylaldehyde-guanylhydrazone], for which the dissociation constant (Kd) was found to be 18 ± 4 µM.

As a reminder, the Kd is the free concentration of one partner at which half of the binding sites on the other are occupied at equilibrium, for simple one-to-one binding.
